Non-standard residues stand in square brackets, D forms with d. No end group written: not given here. Ado = 8-amino-2,4-dioxa octanoic acid
Assays:
[1] = system: internal control proximity probes (18D12 anti-His tag and 2G4 anti-Lys tag antibodies coupled to MML or MMC oligonucleotides); assay: Dual-recognition immunoassay (PEA) of Bitag peptide spiked in PBS-BSA buffer, qPCR readout; assay type: binding, mouse; conditions: for Delta-Ct0-50: 0 vs 50 ng/mL peptide
Protocol: Proximity probes. Proximity probes were prepared by covalently linking purified PCT monoclonal antibodies to HPLC-purified oligonucleotides. […] Synthesis, modifications and HPLC-purification of the oligonucleotides were all performed by Integrated DNA Technologies (Louvain, Belgium). Antibody-oligonucleotide conjugates were generated using commercial Thunderlink kit (Abcam, Cambridge, UK), following the manufacturer's instructions, using a 5:1 oligonucleotide-to-antibody ratio. Conjugation quality was checked by running conjugates on a reducing 4-12% SDS-PAGE (Thermofisher, Waltham, MA, USA) followed by Coomassie Blue staining (Thermofisher) as recommended by the supplier's instructions (Abcam).
(§1) Proximity Extension Assay (PEA™). The Proximity extension assay protocol and the different buffers were taken over from the protocol initially described by Lundberg et al. and also from a recently developed shorter protocol (unpublished results). Proximity extension assay was performed in specific multi-well plates (Hard-Shell 96-Well Clear shell PCR Plates, BioRad, Hercule, CA, USA), in triplicate. Briefly, 5 μL of sample (PBS1x-0.1% BSA buffer or human EDTA plasma with or without rPCT and/or IC peptide) were mixed with 5 μL of a mix of the two PEA™ conjugates (500 pM each) diluted in the probe incubation buffer and incubated at 37° C. for 60 min. After probe incubation, a dilution buffer containing 40 mM of each dNTP were added. After a 5 minutes incubation step at 37° C., 96 μl extension mix containing 26 U/mL of T4 DNA Polymerase (Thermofisher) were added and incubated at 37° C. for an additional 3 minutes, followed by a heat inactivation step at 80° C.
(§2) Detection by qPCR. For qPCR detection, 4 μL of extension products were transferred to a qPCR plate and mixed with 36 μL of qPCR mix (SYBRGREEN mix, Bio-Rad) containing 0.6 μM of each PCR primer. A one-step qPCR was run with initial denaturation at 95° C. for 3 min, followed by 1 sec of denaturation at 95° C. and 10 sec annealing/extension at 63° C. for 40 cycles. Finally, a melt step was performed by increasing the temperature gradually from 60° C. to 95° C. at 0.5° C./sec.
Second, to determine the best combination of spacer size and oligonucleotide length, proximity probes were tested successively on the two Bitag 1 and Bitag 2 peptides. The first type of probes, called MML, featured a longer version of the oligonucleotides (49 and 56 bases), whilst the second type of probes, called MMC, featured a shorter version of the oligonucleotides (29 and 31 bases). For both MML and MMC, the size of the complementary sequence located at the 3′-end of each oligonucleotide was 9 nucleotides.
FIG. 2 summarizes the dual-recognition immunoassay results obtained for three concentrations of Bitag peptide (0, 5 and 50 ng/mL) spiked in PBS-BSA buffer.

[2] = system: 18D12 monoclonal antibody (anti-His tag); assay: Indirect ELISA on plates coated with Bitag peptide, detection with anti-His tag antibody; assay type: binding, mouse
Protocol: (§3) Enzyme Linked Immuno-Sorbant Assays (ELISA). After overnight sensitization with peptides diluted at 5 μg/mL in PBS buffer, pH 7.4 (Euromedex, Souffelweyersheim, France), Nunc 96-well plates (Thermofisher) were saturated for 1 h at room temperature (RT) with PBS1x-Bovine Serum Albumin 5% (BSA, Sigma-Aldrich, Saint Louis, MI, USA). After 4 washes with PBS1x-Tween20 0.1%, PBS1x-BSA 1% buffer containing the anti-tag antibody (at 1 μg/mL) was added and incubated for 1 h at 37° C. The developing with PNPP substrates (Thermofisher) was performed after 30 min of incubation at 37° C. with a 1/50 000 dilution in PBS-BSA-0.5% of an alkaline phosphatase (AP)-labeled streptavidin (Jackson Immunoresearch, Ely, UK). The absorbance level (optical density, OD) was red at 405 nm (OD405) using an Infinite M Nano+ microplate reader (Tecan, Mannedorf, Switzerland). All samples were tested in duplicate and in three independent experiments.
(§4) Selection and validation of the Bitag peptides and the proximity probes. First, to check that the anti-tag antibodies do bind to their epitopes in the context of the Bitag peptides, indirect ELISA was performed by sensitizing multiwall plates with either Bitag 1 or Bitag 2 peptides at two concentrations (1 μg/mL and 5 μg/mL). For the two coated peptides, 18D12 monoclonal antibody (anti-His tag) or 2G4 and 5F12 monoclonal antibodies (anti-Lys tag) were used for detection with an AP-labelled anti-mouse conjugate.

[3] = system: 2G4 monoclonal antibody (anti-Lys tag); assay: Indirect ELISA on plates coated with Bitag peptide, detection with anti-Lys tag antibody 2G4; assay type: binding, mouse
Protocol: as §3, §4

[4] = system: 5F12 monoclonal antibody (anti-Lys tag); assay: Indirect ELISA on plates coated with Bitag peptide, detection with anti-Lys tag antibody 5F12; assay type: binding, mouse; conditions: 5 μg versus 1 μg of peptide
Protocol: as §3
Selection and validation of the Bitag peptides and the proximity probes. First, to check that the anti-tag antibodies do bind to their epitopes in the context of the Bitag peptides, indirect ELISA was performed by sensitizing multiwall plates with either Bitag 1 or Bitag 2 peptides at two concentrations (1 μg/mL and 5 μg/mL). […]

[5] = system: internal control proximity probes MMC (18D12 and 2G4); assay: Dual-recognition immunoassay (PEA) of Bitag 2 peptide spiked in human plasma, MMC probes; assay type: binding, mouse; conditions: for loss of Delta-Ct in human plasma compared to PBS-BSA: pool of three plasma specimens
Protocol: Whole blood specimens were obtained from healthy donors from the French National Blood Bank (EFS, Etablissement Français du Sang, Lyon, France). Samples were selected on the basis of a negative PCT test. Fresh blood was centrifuged for five min at 20 000 g, at 4° C., using a refrigerated microcentrifuge (Eppendorf 5424R, Montesson, France). After centrifugation, the supernatant, which corresponds to the plasma, was recovered for Dual-recognition immunoassay and stored at 4° C. before use. For all biological samples, informed consent was obtained for any experimentation. All experiments were performed in compliance with the relevant laws and institutional guidelines and in accordance with the ethical standards of the Declaration of Helsinki.
as §1, §2
In order to confirm these preliminary results obtained on peptide diluted in the PBS-BSA buffer, PEA™ was performed, using MMC probes, on human plasma (pool of three plasma specimens) spiked with four concentrations of Bitag 2 peptide, from 0 to 500 ng/mL. The results are illustrated in FIG. 3a. Overall, while the assay presented a similar dynamic to that obtained in PBS-BSA buffer, Delta-Ct values appeared to be slightly lower compared to those obtained in PBS-BSA (loss of 0.26 and 0.36 for 5 ng/mL and 50 ng/mL of peptide, respectively). In addition, for 500 ng/mL, a significant loss of dynamic was observed (Delta-Ct50-500 of 0.9 versus Delta-Ct5-50 of 2.72).
Third, a Bitag 2 concentration suitable for internal control Dual-recognition immunoassay had to be chosen. […] To confirm the specificity of the results obtained with 50 ng/mL of Bitag 2 peptide, human plasma specimens were tested by Dual-recognition immunoassay after addition of 50 ng/mL of peptide (n=25 samples) or without peptide complementation (n=13 samples). According to a Mann-Whitney test, the difference between the two groups was significant (P<0.001).

procalcitonin (rPCT) [6] = assay: Interference of Bitag 2 peptide with procalcitonin dual-recognition immunoassay in PBS-BSA buffer; parameters: species or system human
Protocol: as §1, §2
Interference between procalcitonin and internal control. […] The results are illustrated in FIG. 4. For 0.1 ng/mL of rPCT, no significant difference was observed across the range of peptide concentrations added to the sample (mean=34.38±0.15).

procalcitonin (rPCT) [7] = assay: Procalcitonin and internal control DRI in parallel in PBS-BSA, PCR with primers specific of the PCT DRI probes; parameters: species or system human; conditions: 0 ng/mL PCT, PCT primer set
Protocol: as §1
as §2, with “Finally, a melt step was performed by increasing the temperature gradually from 60° C. to 95° C. at 0.5° C./sec.” left out

[8] = system: internal control proximity probes; assay: Procalcitonin and internal control DRI in parallel in PBS-BSA, PCR with internal control primer set; parameters: species or system mouse; conditions: rPCT 0 or 0.1 ng/mL; peptide 0 to 160 ng/mL
Protocol: as §1
as §2, with “Finally, a melt step was performed by increasing the temperature gradually from 60° C. to 95° C. at 0.5° C./sec.” left out

[9] = system: internal control proximity probes; assay: Internal control dual-recognition immunoassay in human plasma specimens spiked with rPCT and Bitag peptide; assay type: binding, mouse; conditions: Bitag peptide at 50 ng/mL
Protocol: as §1
as §2, with “Finally, a melt step was performed by increasing the temperature gradually from 60° C. to 95° C. at 0.5° C./sec.” left out

Sequence: MRGSHHHHHHSVDESNNNGKKKKKKSVDESL (MRGSHHHHHHSVDES[Ado][Ado][Ado]GKKKKKKSVDESL-NH2) [Bitag 2′, long His tag and long Lys tag, three spacer units; N is 8-amino-2,4-dioxa octanoic acid]
- results obtained with Bitag 2 peptide repeated with this peptide ([1]; data not shown): reproduced and confirmed

Sequence: MRGSHHHHHHNNGKKKKKKSV (MRGSHHHHHH[Ado][Ado]GKKKKKKSV-NH2) [Bitag 1, His tag and Lys tag separated by two Ado spacers; N is 8-amino-2,4-dioxa octanoic acid]
- OD405 ([2]; 1 μg of Bitag 1 peptide, detection with 18D12): 0.617
- increase of OD405 for 5 μg of peptide ([2]; 5 μg versus 1 μg of peptide, 18D12): +0.262
- signal in the presence of peptide relative to signal without peptide ([2]; 18D12 antibody, 1 μg of Bitag 1): 5.42 times
- OD405 ([3]; 1 μg of Bitag 1 peptide, detection with 2G4): 0.993
- increase of OD405 for 5 μg of peptide ([3]; 5 μg versus 1 μg of peptide, 2G4): +0.089
- signal in the presence of peptide relative to signal without peptide ([3]; 2G4 antibody, 5 μg of Bitag 1): 9.17 times
- increase of OD405 for 5 μg of peptide [4]: +0.074
- Delta-Ct for MMC compared with MML probes ([1]; PBS-BSA buffer): higher

Sequence: MRGSHHHHHHNNNGKKKKKKSV (MRGSHHHHHH[Ado][Ado][Ado]GKKKKKKSV-NH2) [Bitag 2, His tag and Lys tag separated by 3 Ado spacers; N is 8-amino-2,4-dioxa octanoic acid]
- gain in Delta-Ct for MMC versus MML ([1]; 5 ng/mL of peptide, PBS-BSA buffer): 2.32
- gain in Delta-Ct for MMC versus MML ([1]; 50 ng/mL of peptide, PBS-BSA buffer): 1.86
- Delta-Ct0-50 ([1]; MMC probes, PBS-BSA buffer): 7.08
- Delta-Ct0-50 ([1]; MML probes, PBS-BSA buffer): 5.22
- Delta-Ct of the combination of MMC oligonucleotides and peptide, compared with the other combinations ([1]; peptide concentrations tested (5 and 50 ng/mL), PBS-BSA): highest Delta-Ct
- loss of Delta-Ct in human plasma compared to PBS-BSA ([5]; 5 ng/mL of peptide, MMC probes): 0.26
- loss of Delta-Ct in human plasma compared to PBS-BSA ([5]; 50 ng/mL of peptide, MMC probes): 0.36
- Delta-Ct5-50 ([5]; human plasma, 5 vs 50 ng/mL peptide, MMC probes): 2.72
- Delta-Ct50-500 ([5]; human plasma, 50 vs 500 ng/mL peptide, MMC probes): 0.9
- dynamic range of detection ([5]; short (MMC) oligonucleotides): about 3 orders of magnitude
- Ct of procalcitonin DRI (procalcitonin (rPCT) [6]; 0 ng/mL rPCT, 160 ng/mL of peptide): 35.9
- Ct of procalcitonin DRI, average value for the other peptide concentrations (procalcitonin (rPCT) [6]; 0 ng/mL rPCT, peptide concentrations other than 160 ng/mL): 36.98
- Ct of procalcitonin DRI, mean across the range of peptide concentrations (procalcitonin (rPCT) [6]; 0.1 ng/mL rPCT, Bitag 2 from 0 to 200 ng/mL): 34.38±0.15
- Delta-Ct between sample with 40 ng of peptide and sample without peptide (background noise) (procalcitonin (rPCT) [7]): 1.4
- interference of procalcitonin on Ct with internal control PCR primer set [8]: no interference
- Ct mean value for the internal control ([9]; 0 ng/mL of PCT): 33.53±0.11
- Ct mean value for the internal control ([9]; 10 ng/mL of PCT): 34.23±0.40

From patent US20260193298A1, “SYNTHETIC PEPTIDE FOR USE IN AN IMMUNOMOLECULAR ASSAY” (BIOMÉRIEUX, priority 2022, published 2026)
